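Test compounds were applied to cells in 96-well plates for 48 hours at 5 doses. TGI: total growth inhibition.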
Assays:
Assay in all cases: inhibition of tumour cell growth, NCI panel, 48 h
MDA-MB-435 = system: MDA-MB-435
HCT-15 colon = system: HCT-15 colon
ACHN renal = system: ACHN renal
OVCAR-4 ovarian = system: OVCAR-4 ovarian
K-562 leukemia = system: K-562 leukemia
KM12 colon = system: KM12 colon
NCI-H226 lung = system: NCI-H226 lung
OVCAR-5 ovarian = system: OVCAR-5 ovarian
CAKI-1 renal = system: CAKI-1 renal
HCC-2998 colon = system: HCC-2998 colon
A549 NSCLC = system: A549 NSCLC
RXF 393 renal = system: RXF 393 renal
DU-145 prostate = system: DU-145 prostate
LOX IMVI melanoma = system: LOX IMVI melanoma
UO-31 renal = system: UO-31 renal
T-47D breast = system: T-47D breast
MOLT-4 leukemia = system: MOLT-4 leukemia
HL-60(TB) leukemia = system: HL-60(TB) leukemia
OVCAR-8 ovarian = system: OVCAR-8 ovarian
A498 renal = system: A498 renal
SW-620 colon = system: SW-620 colon
SK-MEL-2 melanoma = system: SK-MEL-2 melanoma
NCI/ADR-RES ovarian = system: NCI/ADR-RES ovarian
SR leukemia = system: SR leukemia
SNB-19 CNS = system: SNB-19 CNS
MDA-MB-231 breast = system: MDA-MB-231 breast
HCT-116 colon = system: HCT-116 colon
NCI-H522 lung = system: NCI-H522 lung
UACC-62 melanoma = system: UACC-62 melanoma
BT-549 breast = system: BT-549 breast
RPMI-8226 leukemia = system: RPMI-8226 leukemia
MALME-3M melanoma = system: MALME-3M melanoma
SF-268 CNS = system: SF-268 CNS
OVCAR-3 ovarian = system: OVCAR-3 ovarian
PC-3 prostate = system: PC-3 prostate
SF-295 CNS = system: SF-295 CNS
SK-OV-3 ovarian = system: SK-OV-3 ovarian
HT29 colon = system: HT29 colon
786-0 renal = system: 786-0 renal
TK-10 renal = system: TK-10 renal
UACC-257 melanoma = system: UACC-257 melanoma
CCRF-CEM leukemia = system: CCRF-CEM leukemia
SK-MEL-5 melanoma = system: SK-MEL-5 melanoma
IGROV1 ovarian = system: IGROV1 ovarian
NCI-H460 lung = system: NCI-H460 lung
HOP-92 NSCLC = system: HOP-92 NSCLC
HOP-62 NSCLC = system: HOP-62 NSCLC
U251 CNS = system: U251 CNS
HS 578T breast = system: HS 578T breast
EKVX NSCLC = system: EKVX NSCLC
SK-MEL-28 melanoma = system: SK-MEL-28 melanoma
NCI-H23 lung = system: NCI-H23 lung
SNB-75 CNS = system: SNB-75 CNS
COLO 205 colon = system: COLO 205 colon
M14 melanoma = system: M14 melanoma
MCF7 breast = system: MCF7 breast
SN12C renal = system: SN12C renal
SF-539 CNS = system: SF-539 CNS

COC(=O)[C@](NC(=O)OCc1ccccc1)([C@@H](C)S(=O)c1ccc(C)cc1)C(F)(F)F (stereo partly drawn)
TGI (MDA-MB-435): > 100 µM | TGI (HCT-15 colon): > 100 µM | TGI (ACHN renal): > 100 µM | TGI (OVCAR-4 ovarian): 89.2 µM | TGI (K-562 leukemia): > 100 µM | TGI (KM12 colon): > 100 µM | TGI (NCI-H226 lung): > 100 µM | TGI (OVCAR-5 ovarian): > 100 µM | TGI (CAKI-1 renal): > 100 µM | TGI (HCC-2998 colon): > 100 µM | TGI (A549 NSCLC): > 100 µM | TGI (RXF 393 renal): 65.8 µM | TGI (DU-145 prostate): > 100 µM | TGI (LOX IMVI melanoma): > 100 µM | TGI (UO-31 renal): 95.9 µM | TGI (T-47D breast): > 100 µM | TGI (MOLT-4 leukemia): 70 µM | TGI (HL-60(TB) leukemia): 38.9 µM | TGI (OVCAR-8 ovarian): > 100 µM | TGI (A498 renal): 95.8 µM | TGI (SW-620 colon): > 100 µM | TGI (SK-MEL-2 melanoma): 48.9 µM | TGI (NCI/ADR-RES ovarian): > 100 µM | TGI (SR leukemia): 61.5 µM | TGI (SNB-19 CNS): > 100 µM | TGI (MDA-MB-231 breast): > 100 µM | TGI (HCT-116 colon): > 100 µM | TGI (NCI-H522 lung): > 100 µM | TGI (UACC-62 melanoma): > 100 µM | TGI (BT-549 breast): 88.8 µM | TGI (RPMI-8226 leukemia): > 100 µM | TGI (MALME-3M melanoma): > 100 µM | TGI (SF-268 CNS): > 100 µM | TGI (OVCAR-3 ovarian): > 100 µM | TGI (PC-3 prostate): > 100 µM | TGI (SF-295 CNS): > 100 µM | TGI (SK-OV-3 ovarian): > 100 µM | TGI (HT29 colon): 67 µM | TGI (786-0 renal): > 100 µM | TGI (TK-10 renal): 70 µM | TGI (UACC-257 melanoma): 86.6 µM | TGI (CCRF-CEM leukemia): 92 µM | TGI (SK-MEL-5 melanoma): 33.1 µM | TGI (IGROV1 ovarian): > 100 µM | TGI (NCI-H460 lung): > 100 µM | TGI (HOP-92 NSCLC): 96.4 µM | TGI (HOP-62 NSCLC): > 100 µM | TGI (U251 CNS): > 100 µM | TGI (HS 578T breast): > 100 µM | TGI (EKVX NSCLC): > 100 µM | TGI (SK-MEL-28 melanoma): > 100 µM | TGI (NCI-H23 lung): 95.1 µM | TGI (SNB-75 CNS): > 100 µM | TGI (COLO 205 colon): 64.7 µM | TGI (M14 melanoma): > 100 µM

N#Cc1c(-c2ccc([N+](=O)[O-])cc2)cc(-c2ccc(Nc3ccnc4cc(C(F)(F)F)ccc34)cc2)[nH]c1=O
TGI (MDA-MB-435): > 100 µM | TGI (HCT-15 colon): > 100 µM | TGI (ACHN renal): > 100 µM | TGI (OVCAR-4 ovarian): > 100 µM | TGI (K-562 leukemia): > 100 µM | TGI (NCI-H226 lung): > 100 µM | TGI (OVCAR-5 ovarian): 40.1 µM | TGI (CAKI-1 renal): > 100 µM | TGI (HCC-2998 colon): > 100 µM | TGI (A549 NSCLC): > 100 µM | TGI (RXF 393 renal): > 100 µM | TGI (DU-145 prostate): > 100 µM | TGI (LOX IMVI melanoma): > 100 µM | TGI (UO-31 renal): > 100 µM | TGI (T-47D breast): > 100 µM | TGI (MOLT-4 leukemia): > 100 µM | TGI (OVCAR-8 ovarian): > 100 µM | TGI (A498 renal): > 100 µM | TGI (SW-620 colon): > 100 µM | TGI (SK-MEL-2 melanoma): > 100 µM | TGI (NCI/ADR-RES ovarian): > 100 µM | TGI (SR leukemia): > 100 µM | TGI (SNB-19 CNS): 82.7 µM | TGI (MDA-MB-231 breast): 44.7 µM | TGI (HCT-116 colon): 66.1 µM | TGI (NCI-H522 lung): > 100 µM | TGI (UACC-62 melanoma): > 100 µM | TGI (BT-549 breast): > 100 µM | TGI (RPMI-8226 leukemia): > 100 µM | TGI (MALME-3M melanoma): > 100 µM | TGI (SF-268 CNS): > 100 µM | TGI (PC-3 prostate): > 100 µM | TGI (SF-295 CNS): > 100 µM | TGI (MCF7 breast): > 100 µM | TGI (SK-OV-3 ovarian): > 100 µM | TGI (HT29 colon): > 100 µM | TGI (786-0 renal): > 100 µM | TGI (TK-10 renal): > 100 µM | TGI (UACC-257 melanoma): > 100 µM | TGI (CCRF-CEM leukemia): > 100 µM | TGI (SK-MEL-5 melanoma): > 100 µM | TGI (IGROV1 ovarian): > 100 µM | TGI (NCI-H460 lung): > 100 µM | TGI (HOP-62 NSCLC): > 100 µM | TGI (U251 CNS): 21.9 µM | TGI (EKVX NSCLC): > 100 µM | TGI (SN12C renal): > 100 µM | TGI (SF-539 CNS): > 100 µM | TGI (SK-MEL-28 melanoma): > 100 µM | TGI (NCI-H23 lung): > 100 µM | TGI (SNB-75 CNS): > 100 µM | TGI (COLO 205 colon): 29.1 µM | TGI (M14 melanoma): > 100 µM
